Test results published in patent publication US20180179167A1, “Nrf2 REGULATORS” (GlaxoSmithKline Intellectual Property Development Limited, priority 2015, published 2018).

system: NQO1 specific enzyme activity in BEAS-2B cells; assay: BEAS-2B NQO1 MTT Assay; type: cell-based; details: Homo sapiens, EC50 of NQO1 specific activity induction, 48 hours with compound
Text: NAD(P)H:quinone oxidoreductase 1 (NQO1), also called DT diaphorase, is a homodimeric FAD-containing enzyme that catalyzes obligatory NAD(P)H-dependent two-electron reductions of quinones and protects cells against the toxic and neoplastic effects of free radicals and reactive oxygen species arising from one-electron reductions. The transcription of NQO1 is finely regulated by Nrf2, and thus NQO1 activity is a good marker for Nrf2 activation. On day one, frozen BEAS-2B cells (ATCC) are thawed in a water bath, counted, and re-suspended at a concentration of 250,000 cells/mL. Fifty microliters of cells are plated in 384 well black clear-bottomed plates. Plates are incubated at 37° C., 5% CO2 overnight. On day two, plates are centrifuged and 50 nL of compound or controls are added to the cells. Plates are then incubated at 37° C., 5% CO2 for 48 hours. On day four, medium is aspirated from the plate and crude cell lysates are made by adding 13 uL of 1× Cell Signaling Technologies lysis buffer with 1 Complete, Mini, EDTA-free Protease Inhibitor Tablet (Roche) for each 10 mL of lysis buffer . After lysis plates are incubated for 20 minutes at room temperature. Two microliters of lysate are removed for use in Cell Titer Glo assay (Promega) and MTT cocktail is prepared (Prochaska et. al. 1998) for measurement of NQO1 activity. Fifty microliters of MTT cocktail is added to each well, plate is centrifuged, and analyzed on an Envision plate reader (Perkin Elmer) using Absorbance 570 nm label for 30 minutes. Product formation is measured kinetically and the EC50 of NQO1 specific activity induction is calculated by plotting the change in absorbance (Delta OD/min) versus the log of compound concentration followed by 3-parameter fitting.
EC50s <1 nM (+++++), EC50s 10 nM-1 nM (++++), EC50s 10-100 nM (+++), EC50s 100 nM-1 uM (++), EC50s 1-10 uM (+), EC50s >10 uM (−), or were not determined (ND).

Compared with `Cc1c(C(CC(=O)O)c2ccc(Cl)c(CN(C)C(=O)OC(C)(C)C)c2)ccc2c1nnn2C` (centres unmarked) [Example 1, 3-[3-({[(tert-Butoxy)carbonyl](methyl)amino}methyl)-4-chlorophenyl]-3-(1,4-dimethyl-1H-1,2,3-benzotriazol-5-yl)propanoic acid], `COCC(C)(C)OC(=O)N(C)Cc1cc(C(CC(=O)O)c2ccc3c(nnn3C)c2C)ccc1C` (centres unmarked) [Example 10] is higher in EC50: 100 to 1000 nM for the first, 1000 to 10000 nM for the second. The first is the more potent here.

`CN(Cc1cc(C(CC(=O)O)c2ccc3c(c2)nnn3C)ccc1Cl)C(=O)OC1CCCC1` (centres unmarked) [Example 2, 3-[4-Chloro-3-({[(cyclopentyloxy)carbonyl](methyl)amino}methyl)phenyl]-3-(1-methyl-1H-1,2,3-benzotriazol-5-yl)propanoic acid] and `CN(Cc1cc(C(CC(=O)O)c2ccc3c(c2)nnn3C)ccc1Cl)C(=O)OC1CCCCC1` (centres unmarked) [Example 5, 3-(4-Chloro-3-((((cyclohexyloxy)carbonyl)(methyl)amino)methyl)phenyl)-3-(1-methyl-1H-benzo[d][1,2,3]triazol-5-yl)propanoic acid] fall in the same range of EC50: 1000 to 10000 nM for the first, 1000 to 10000 nM for the second.

`CCC(C)OC(=O)N(C)Cc1cc(C(CC(=O)O)c2ccc3c(c2)nnn3C)ccc1Cl` (centres unmarked) [Example 3, 3-[3-({[(Butan-2-yloxy)carbonyl](methyl)amino}methyl)-4-chlorophenyl]-3-(1-methyl-1H-1,2,3-benzotriazol-5-yl)propanoic acid] and `Cc1ccc(C(CC(=O)O)c2ccc3c(c2)nnn3C)cc1OCC(=O)N(C)C` (centres unmarked) [Example 7, 3-(3-(2-(Dimethylamino)-2-oxoethoxy)-4-methylphenyl)-3-(1-methyl-1H-benzo[d][1,2,3]triazol-5-yl)propanoic acid] fall in the same range of EC50: 1000 to 10000 nM for the first, 1000 to 10000 nM for the second.

Compared with `COc1cc(C(CC(=O)O)c2ccc(C)c(CN(C)C(=O)OC(C)(C)C)c2)cc2nnn(C)c12` (centres unmarked) [Example 4, 3-[3-({[(tert-Butoxy)carbonyl](methyl)amino}methyl)-4-methylphenyl]-3-(7-methoxy-1-methyl-1H-1,2,3-benzotriazol-5-yl)propanoic acid], `COc1cc(C(CC(=O)O)c2ccc(Cl)c(CN(C)C(=O)OC(C)(C)C)c2)cc2nnn(C)c12` (centres unmarked) [Example 6, 3-(3-(((tert-Butoxycarbonyl)(methyl)amino)methyl)-4-chlorophenyl)-3-(7-methoxy-1-methyl-1H-benzo[d][1,2,3]triazol-5-yl)propanoic acid] is lower in EC50: 1000 to 10000 nM for the first, 100 to 1000 nM for the second. The second is the more potent here.

`Cc1ccc(C(CC(=O)O)c2ccc3c(nnn3C)c2C)cc1CN(C)C(=O)Oc1ccc([N+](=O)[O-])cc1` (centres unmarked) [Example 8, 3-(1,4-Dimethyl-1H-benzo[d][1,2,3]triazol-5-yl)-3-(4-methyl-3-((methyl((4-nitrophenoxy)carbonyl)amino)methyl)phenyl)propanoic acid] and `COc1ccc(CN(Cc2cc(C(CC(=O)O)c3ccc4c(nnn4C)c3C)ccc2C)C(C)=O)cc1` (centres unmarked) [Example 15, 3-(1,4-Dimethyl-1H-benzo[d][1,2,3]triazol-5-yl)-3-(3-((N-(4-methoxybenzyl)acetamido)methyl)-4-methylphenyl)propanoic acid] fall in the same range of EC50: 1000 to 10000 nM for the first, 1000 to 10000 nM for the second.

Compared with `COc1cc(C(CC(=O)O)c2ccc(Cl)c(CN(C)C(=O)OC3CCCC3)c2)cc2nnn(C)c12` (centres unmarked) [Example 9, 3-(4-Chloro-3-((((cyclopentyloxy)carbonyl)(methyl)amino)methyl)phenyl)-3-(7-methoxy-1-methyl-1H-benzo[d][1,2,3]triazol-5-yl)propanoic acid], `COc1cc(C(CC(=O)O)c2ccc(C)c(CN(CC3CCCCC3)C(C)=O)c2)cc2nnn(C)c12` (centres unmarked) [Example 20, 3-(3-((N-(Cyclohexylmethyl)acetamido)methyl)-4-methylphenyl)-3-(7-methoxy-1-methyl-1H-benzo[d][1,2,3]triazol-5-yl)propanoic acid] is lower in EC50: 1000 to 10000 nM for the first, 100 to 1000 nM for the second. The second is the more potent here.

Compared with `CC(=O)N(Cc1cc(C(CC(=O)O)c2ccc3c(nnn3C)c2C)ccc1C)CC1CCCCC1` (centres unmarked) [Example 11, 3-(3-((N-(Cyclohexylmethyl)acetamido)methyl)-4-methylphenyl)-3-(1,4-dimethyl-1H-benzo[d][1,2,3]triazol-5-yl)propanoic acid], `CC(=O)N(Cc1cc(C(CC(=O)O)c2ccc3c(nnn3C)c2C)ccc1C)CC1CCCCCC1` (centres unmarked) [Example 27, 3-(3-((N-(Cycloheptylmethyl)acetamido)methyl)-4-methylphenyl)-3-(1,4-dimethyl-1H-benzo[d][1,2,3]triazol-5-yl)propanoic acid] is lower in EC50: 1000 to 10000 nM for the first, 100 to 1000 nM for the second. The second is the more potent here.

`CC(=O)N(Cc1ccccc1)Cc1cc(C(CC(=O)O)c2ccc3c(nnn3C)c2C)ccc1C` (centres unmarked) [Example 12, 3-(3-((N-Benzylacetamido)methyl)-4-methylphenyl)-3-(1,4-dimethyl-1H-benzo[d][1,2,3]triazol-5-yl)propanoic acid] and `CC(=O)N(Cc1cccc(C)c1)Cc1cc(C(CC(=O)O)c2ccc3c(nnn3C)c2C)ccc1C` (centres unmarked) [Example 13, 3-(1,4-Dimethyl-1H-benzo[d][1,2,3]triazol-5-yl)-3-(4-methyl-3-((N-(3-methylbenzyl)acetamido)methyl)phenyl)propanoic acid] fall in the same range of EC50: 1000 to 10000 nM for the first, 1000 to 10000 nM for the second.

`CC(=O)N(Cc1cc(C(CC(=O)O)c2ccc3c(nnn3C)c2C)ccc1C)Cc1cccc(C)c1C` (centres unmarked) [Example 14, 3-(1,4-Dimethyl-1H-benzo[d][1,2,3]triazol-5-yl)-3-(3-((N-(2,3-dimethylbenzyl)acetamido)methyl)-4-methylphenyl)propanoic acid] and `CCc1ccc(CN(Cc2cc(C(CC(=O)O)c3ccc4c(nnn4C)c3C)ccc2C)C(C)=O)cc1` (centres unmarked) [Example 16, 3-(1,4-Dimethyl-1H-benzo[d][1,2,3]triazol-5-yl)-3-(3-((N-(4-ethylbenzyl)acetamido)methyl)-4-methylphenyl)propanoic acid] fall in the same range of EC50: 1000 to 10000 nM for the first, 1000 to 10000 nM for the second.

Compared with `CCC1CCC(CN(Cc2cc(C(CC(=O)O)c3ccc4c(nnn4C)c3C)ccc2C)C(C)=O)CC1` (centres unmarked) [Example 17, 3-(1,4-Dimethyl-1H-benzo[d][1,2,3]triazol-5-yl)-3-(3-((N-((4-ethylcyclohexyl)methyl)acetamido)methyl)-4-methylphenyl)propanoic acid], `CCC1CCC(CN(Cc2cc(C(CC(=O)O)c3ccc4c(nnn4C)c3C)ccc2C)C(N)=O)CC1` (centres unmarked) [Example 19, 3-(1,4-Dimethyl-1H-benzo[d][1,2,3]triazol-5-yl)-3-(3-((1-((4-ethylcyclohexyl)methyl)ureido)methyl)-4-methylphenyl)propanoic acid] is higher in EC50: 10 to 100 nM for the first, 1000 to 10000 nM for the second. The first is the more potent here.

Compared with `Cc1ccc(C(CC(=O)O)c2ccc3c(nnn3C)c2C)cc1CN(CC1CCCCC1)C(N)=O` (centres unmarked) [Example 18, 3-(3-((1-(Cyclohexylmethyl)ureido)methyl)-4-methylphenyl)-3-(1,4-dimethyl-1H-benzo[d][1,2,3]triazol-5-yl)propanoic acid], `Cc1ccc([C@@H](c2ccc3c(nnn3C)c2C)C(C)(C)C(=O)O)cc1CN(CC1CCCCCC1)C(N)=O` [Example 23, (S)-3-(3-((1-(Cycloheptylmethyl)ureido)methyl)-4-methylphenyl)-3-(1,4-dimethyl-1H-benzo[d][1,2,3]triazol-5-yl)-2,2-dimethylpropanoic acid] is lower in EC50: 1000 to 10000 nM for the first, 1 to 10 nM for the second.

Compared with `CCC1CCC(CN(Cc2cc(C(c3ccc4c(nnn4C)c3C)C(C)(C)C(=O)O)ccc2C)C(N)=O)CC1` (centres unmarked) [Example 22, 3-(1,4-Dimethyl-1H-benzo[d][1,2,3]triazol-5-yl)-3-(3-((1-((4-ethylcyclohexyl)methyl)ureido)methyl)-4-methylphenyl)-2,2-dimethylpropanoic acid], `CCC1CCC(O)(CN(Cc2cc([C@@H](c3ccc4c(nnn4C)c3C)C(C)(C)C(=O)O)ccc2C)C(N)=O)CC1` (stereo partly drawn) [Example 24, (S)-3-(1,4-Dimethyl-1H-benzo[d][1,2,3]triazol-5-yl)-3-(3-((1-((4-ethyl-1-hydroxycyclohexyl)methyl)ureido)methyl)-4-methylphenyl)-2,2-dimethylpropanoic acid] is higher in EC50: 1 to 10 nM for the first, 10 to 100 nM for the second. The first is the more potent here.

`Cc1ccc([C@@H](c2ccc3c(nnn3C)c2C)C(C)(C)C(=O)O)cc1CN(CC1(O)CCCCCC1)C(N)=O` [Example 25, (S)-3-(1,4-Dimethyl-1H-benzo[d][1,2,3]triazol-5-yl)-3-(3-((1-((1-hydroxycycloheptyl)methyl)ureido)methyl)-4-methylphenyl)-2,2-dimethylpropanoic acid] and `CC(=O)N(Cc1cc(C(c2ccc3c(nnn3C)c2C)C(C)(C)C(=O)O)ccc1C)CC1(O)CCCCC1` (centres unmarked) [Example 26, 3-(1,4-Dimethyl-1H-benzo[d][1,2,3]triazol-5-yl)-3-(3-((N-((1-hydroxycyclohexyl)methyl)acetamido)methyl)-4-methylphenyl)-2,2-dimethylpropanoic acid] fall in the same range of EC50: 100 to 1000 nM for the first, 100 to 1000 nM for the second.
